Results on four compounds are retold here after ChEMBL document CHEMBL1201862, “PubChem BioAssay data set” (2004).

Assay [1] deals with HEK293. Briefly: NOD1 signaling inhibitors, primary screen, cell-based, luminescence, uHTS (AID 1578). It is filed as functional. The note with it: Homo sapiens.
For assay [2], the system named is BJ. Kind of assay: cytotoxicity toward BJ-TERT fibroblasts, dose response, cell-based, RAS-independent, luminescence (AID 1933). It counts as functional. Conditions: Homo sapiens.
Assay [3] relates to HEK293. Briefly: cells. It is filed as functional, cell-based. Conditions: Homo sapiens.
The subject of assay [4] is BJ. Briefly: cells. It counts as functional, cell-based. Conditions: Homo sapiens.
The test system of assay [5] is HEK293. Briefly: cells. It counts as functional, cell-based. The note with it: Homo sapiens. The source holds these as a separate data set.
In assay [6] the target is Nucleotide-binding oligomerization domain-containing protein 2 (Homo sapiens, UniProt Q9HC29). Briefly: NOD2 signaling inhibitors, cell-based, luminescence, uHTS, HEK293 (AID 1566). It is filed as functional.
Assay [7] concerns HEK293. Kind of assay: NOD2 signaling inhibitors in MDP-stimulated cells, cell-based, uHTS, luminescence (AID 2001). It counts as functional. Conditions: Homo sapiens.
Assay [8] concerns HEK293. Briefly: cells. The note with it: Homo sapiens. It counts as functional, cell-based. The source holds these as a separate data set.
Assay [9] in a line: microbe, parasite or virus in culture. It counts as functional. Conditions: Mycobacterium tuberculosis.
The subject of assay [10] is BJ. Briefly: cytotoxicity toward BJ-TERT-LT-ST fibroblasts, dose response, cell-based, RAS-independent, luminescence (AID 1935).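 Note: BJ fibroblasts immortalized with TERT plus LT and ST oncogenes.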 It is filed as functional. Conditions: Homo sapiens.
A short description of assay [11]: cytotoxicity toward DRD oncogenic fibroblasts, dose response, cell-based, non-viral oncogenic, luminescence (AID 1934). It counts as functional. The note with it: Homo sapiens.
In assay [12] the target is DNA damage-inducible transcript 3 protein (Mus musculus, UniProt P35639). It counts as functional, Cricetulus griseus.
In assay [13] the target is T1, Microphthalmia-associated transcription factor (Homo sapiens, UniProt O75030).
T1 sequence (O75030 whole entry): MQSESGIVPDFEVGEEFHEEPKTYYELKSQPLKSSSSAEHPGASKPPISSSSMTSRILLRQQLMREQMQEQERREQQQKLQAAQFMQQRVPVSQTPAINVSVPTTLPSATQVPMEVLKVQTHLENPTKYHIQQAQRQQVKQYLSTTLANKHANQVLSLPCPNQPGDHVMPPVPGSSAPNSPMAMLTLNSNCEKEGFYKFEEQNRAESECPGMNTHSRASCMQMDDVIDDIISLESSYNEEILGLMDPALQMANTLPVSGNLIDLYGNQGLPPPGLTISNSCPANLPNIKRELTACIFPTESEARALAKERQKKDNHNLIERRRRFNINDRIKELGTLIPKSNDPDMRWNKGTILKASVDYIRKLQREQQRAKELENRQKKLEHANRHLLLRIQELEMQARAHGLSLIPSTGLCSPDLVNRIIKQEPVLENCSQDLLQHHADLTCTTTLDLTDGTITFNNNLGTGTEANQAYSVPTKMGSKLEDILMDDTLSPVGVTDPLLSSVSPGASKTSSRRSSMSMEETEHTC
Briefly: TRPM1 promoter luciferase signal decrease, dose response, MITF inhibitor project, cell-based, SK-MEL-5, cherry-picked, set 3 (AID 493073).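 Note: SK-MEL-5 melanoma cells with luciferase driven by the MITF target TRPM1 promoter.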 It is filed as functional.

The target in assay [14] is T2, Replicative DNA helicase DnaB (Mycobacterium tuberculosis, UniProt P9WMR3).
T2 sequence (P9WMR3 whole entry): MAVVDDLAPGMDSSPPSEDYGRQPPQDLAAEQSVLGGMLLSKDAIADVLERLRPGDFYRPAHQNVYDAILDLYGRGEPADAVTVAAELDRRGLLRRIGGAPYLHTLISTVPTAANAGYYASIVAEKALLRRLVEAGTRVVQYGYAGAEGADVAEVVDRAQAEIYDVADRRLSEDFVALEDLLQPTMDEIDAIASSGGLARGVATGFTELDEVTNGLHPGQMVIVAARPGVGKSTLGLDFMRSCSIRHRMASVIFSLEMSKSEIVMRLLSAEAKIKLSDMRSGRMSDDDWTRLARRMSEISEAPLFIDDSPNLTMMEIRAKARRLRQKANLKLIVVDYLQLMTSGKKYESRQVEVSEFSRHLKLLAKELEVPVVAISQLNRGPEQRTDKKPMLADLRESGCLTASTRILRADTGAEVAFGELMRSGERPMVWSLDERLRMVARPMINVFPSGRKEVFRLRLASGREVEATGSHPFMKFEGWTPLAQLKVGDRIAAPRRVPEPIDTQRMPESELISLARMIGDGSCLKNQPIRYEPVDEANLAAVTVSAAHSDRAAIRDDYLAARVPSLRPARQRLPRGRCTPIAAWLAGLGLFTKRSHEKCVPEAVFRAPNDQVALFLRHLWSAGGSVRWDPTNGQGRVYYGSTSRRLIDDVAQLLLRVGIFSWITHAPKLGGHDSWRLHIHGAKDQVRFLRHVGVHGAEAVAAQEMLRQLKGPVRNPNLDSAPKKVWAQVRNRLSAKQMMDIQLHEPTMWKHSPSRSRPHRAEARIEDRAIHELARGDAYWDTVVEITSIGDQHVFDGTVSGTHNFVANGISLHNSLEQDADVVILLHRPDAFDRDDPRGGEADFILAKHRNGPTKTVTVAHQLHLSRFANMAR
Briefly: DnaB intein splicing inhibitors, dose response, biochemical, cell-free fluorescence (AID 449749). It counts as functional.

For a further assay, the target named is T3, Protein RecA (Mycobacterium tuberculosis, UniProt P9WHJ3).
T3 sequence (P9WHJ3 whole entry): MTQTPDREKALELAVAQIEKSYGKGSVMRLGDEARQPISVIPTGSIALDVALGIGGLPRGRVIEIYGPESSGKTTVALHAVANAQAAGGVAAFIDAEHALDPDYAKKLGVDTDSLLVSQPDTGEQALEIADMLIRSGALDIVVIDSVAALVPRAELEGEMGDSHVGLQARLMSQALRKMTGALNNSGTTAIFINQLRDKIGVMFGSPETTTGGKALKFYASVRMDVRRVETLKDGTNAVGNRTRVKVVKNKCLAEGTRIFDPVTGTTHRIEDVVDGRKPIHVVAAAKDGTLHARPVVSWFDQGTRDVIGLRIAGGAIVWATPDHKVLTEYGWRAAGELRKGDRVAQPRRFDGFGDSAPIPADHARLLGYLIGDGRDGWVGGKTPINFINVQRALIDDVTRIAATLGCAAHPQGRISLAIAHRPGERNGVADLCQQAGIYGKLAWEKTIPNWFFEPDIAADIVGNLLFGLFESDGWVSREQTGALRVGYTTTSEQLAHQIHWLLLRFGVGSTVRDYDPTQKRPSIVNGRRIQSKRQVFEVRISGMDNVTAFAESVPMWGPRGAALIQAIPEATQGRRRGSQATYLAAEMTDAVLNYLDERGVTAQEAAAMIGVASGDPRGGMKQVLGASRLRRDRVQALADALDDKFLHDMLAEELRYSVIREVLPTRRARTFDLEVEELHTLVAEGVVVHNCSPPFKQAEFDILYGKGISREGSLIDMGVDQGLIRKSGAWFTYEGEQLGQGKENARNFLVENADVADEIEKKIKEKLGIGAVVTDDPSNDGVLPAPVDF
Kind of assay: Fluorescence Cell-Free Homogeneous Dose Retest to Identify Inhibitors of RecA-Intein Splicing Activity. [Related pubchem assays (depositor defined):AID2097, AID2223, AID489010, AID492950]. It counts as functional.

The nature of assay [15]: cytotoxicity in NIH/3T3 mouse fibroblasts, dose response, cytotoxicity control, cell-based, mouse embryonic fibroblasts, dry powder, set 2 (AID 493247). It is filed as functional. The note with it: Fibroblast.
The test system of the next assay is Trypanosoma cruzi. Kind of assay: growth inhibition of intracellular Trypanosoma cruzi, dose response, cell-based, plate reader, dry powder, set 3 (AID 493197). It is filed as functional.
Assay [16] addresses T4, Tyrosine-protein phosphatase non-receptor type 7 (Homo sapiens, UniProt P35236).
T4 sequence (P35236 whole entry): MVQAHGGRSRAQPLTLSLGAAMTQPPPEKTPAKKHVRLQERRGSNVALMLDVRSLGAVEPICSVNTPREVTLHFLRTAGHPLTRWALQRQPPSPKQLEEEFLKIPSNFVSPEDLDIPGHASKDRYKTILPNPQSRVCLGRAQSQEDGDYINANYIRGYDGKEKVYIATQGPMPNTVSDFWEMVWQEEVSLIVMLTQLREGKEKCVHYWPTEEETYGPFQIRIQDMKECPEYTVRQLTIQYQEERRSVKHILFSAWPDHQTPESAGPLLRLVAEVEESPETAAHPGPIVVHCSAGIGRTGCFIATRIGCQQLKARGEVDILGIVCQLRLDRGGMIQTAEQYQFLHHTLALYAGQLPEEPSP
Kind of assay: redox-dependent HePTP inhibition, mechanism study, biochemical, fluorescence (AID 2068). It counts as functional.

Assay [17] addresses Dual specificity protein phosphatase 3 (Homo sapiens, UniProt P51452). Kind of assay: SAR VHR1 Fluorescent Assay for In Vitro dose response studies Set 2. [Related pubchem assays (depositor defined):AID1654, AID1661, AID1878]. It is filed as functional.
Assay [18] addresses T5, Dual specificity protein phosphatase 6 (Rattus norvegicus, UniProt Q64346).
T5 sequence (Q64346 whole entry): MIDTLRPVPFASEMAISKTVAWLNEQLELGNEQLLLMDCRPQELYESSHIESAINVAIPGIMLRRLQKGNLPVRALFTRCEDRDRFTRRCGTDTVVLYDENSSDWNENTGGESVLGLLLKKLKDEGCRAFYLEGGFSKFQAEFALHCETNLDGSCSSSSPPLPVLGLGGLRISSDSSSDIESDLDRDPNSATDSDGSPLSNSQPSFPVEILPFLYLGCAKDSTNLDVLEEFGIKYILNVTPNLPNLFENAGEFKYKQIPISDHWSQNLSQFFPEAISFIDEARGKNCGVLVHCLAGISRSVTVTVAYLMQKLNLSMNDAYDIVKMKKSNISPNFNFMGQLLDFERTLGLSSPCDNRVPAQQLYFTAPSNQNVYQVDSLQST
It counts as functional.

A further assay has as its target Integrin alpha-L (Mus musculus, UniProt P24063). Kind of assay: modulators of CD8 T cell-vesicle binding, dose response, powder samples, mouse 2C CD8+ cells (AID 504565). It counts as functional.

Each structure is given as a SMILES string. Activity calls are given as the source filed them. A value given as a limit tells only on which side of the number the result lay.

Integrin alpha-L, sequence (P24063 whole entry): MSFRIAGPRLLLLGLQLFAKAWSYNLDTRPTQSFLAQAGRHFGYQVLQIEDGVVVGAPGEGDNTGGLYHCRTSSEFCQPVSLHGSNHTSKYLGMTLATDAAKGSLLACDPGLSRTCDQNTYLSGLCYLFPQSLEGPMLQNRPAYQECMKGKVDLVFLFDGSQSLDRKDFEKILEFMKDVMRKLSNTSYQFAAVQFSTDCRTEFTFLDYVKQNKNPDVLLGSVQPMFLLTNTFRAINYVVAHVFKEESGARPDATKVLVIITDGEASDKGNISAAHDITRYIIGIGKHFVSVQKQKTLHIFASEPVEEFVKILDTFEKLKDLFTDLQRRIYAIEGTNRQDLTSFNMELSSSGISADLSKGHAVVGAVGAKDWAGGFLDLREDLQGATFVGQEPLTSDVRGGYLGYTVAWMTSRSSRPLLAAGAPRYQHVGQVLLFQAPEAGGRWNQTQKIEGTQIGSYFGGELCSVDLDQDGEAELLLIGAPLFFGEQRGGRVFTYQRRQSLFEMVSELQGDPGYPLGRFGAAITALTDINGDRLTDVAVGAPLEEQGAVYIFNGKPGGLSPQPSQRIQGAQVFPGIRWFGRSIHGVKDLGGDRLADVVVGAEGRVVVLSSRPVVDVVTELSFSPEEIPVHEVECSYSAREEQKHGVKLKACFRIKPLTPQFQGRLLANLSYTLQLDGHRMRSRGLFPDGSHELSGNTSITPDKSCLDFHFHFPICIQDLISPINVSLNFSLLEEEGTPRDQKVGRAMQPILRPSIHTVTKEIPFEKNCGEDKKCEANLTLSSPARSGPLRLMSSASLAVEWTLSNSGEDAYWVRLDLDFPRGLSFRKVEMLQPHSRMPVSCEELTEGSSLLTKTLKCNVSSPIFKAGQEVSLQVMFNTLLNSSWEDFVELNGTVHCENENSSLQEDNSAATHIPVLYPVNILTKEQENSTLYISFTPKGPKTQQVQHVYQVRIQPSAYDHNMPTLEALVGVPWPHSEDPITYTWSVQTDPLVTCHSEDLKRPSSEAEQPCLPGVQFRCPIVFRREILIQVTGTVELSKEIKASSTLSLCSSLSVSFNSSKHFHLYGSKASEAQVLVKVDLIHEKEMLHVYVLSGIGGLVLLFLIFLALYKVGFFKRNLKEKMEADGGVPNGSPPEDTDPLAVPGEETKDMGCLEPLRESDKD
DNA damage-inducible transcript 3 protein, sequence (P35639 whole entry): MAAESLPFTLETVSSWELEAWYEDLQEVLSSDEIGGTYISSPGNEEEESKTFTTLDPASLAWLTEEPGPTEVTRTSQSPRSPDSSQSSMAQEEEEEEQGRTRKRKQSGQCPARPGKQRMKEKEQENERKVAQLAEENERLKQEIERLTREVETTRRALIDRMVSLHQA
Nucleotide-binding oligomerization domain-containing protein 2, sequence (Q9HC29 whole entry, the tested form may be a part): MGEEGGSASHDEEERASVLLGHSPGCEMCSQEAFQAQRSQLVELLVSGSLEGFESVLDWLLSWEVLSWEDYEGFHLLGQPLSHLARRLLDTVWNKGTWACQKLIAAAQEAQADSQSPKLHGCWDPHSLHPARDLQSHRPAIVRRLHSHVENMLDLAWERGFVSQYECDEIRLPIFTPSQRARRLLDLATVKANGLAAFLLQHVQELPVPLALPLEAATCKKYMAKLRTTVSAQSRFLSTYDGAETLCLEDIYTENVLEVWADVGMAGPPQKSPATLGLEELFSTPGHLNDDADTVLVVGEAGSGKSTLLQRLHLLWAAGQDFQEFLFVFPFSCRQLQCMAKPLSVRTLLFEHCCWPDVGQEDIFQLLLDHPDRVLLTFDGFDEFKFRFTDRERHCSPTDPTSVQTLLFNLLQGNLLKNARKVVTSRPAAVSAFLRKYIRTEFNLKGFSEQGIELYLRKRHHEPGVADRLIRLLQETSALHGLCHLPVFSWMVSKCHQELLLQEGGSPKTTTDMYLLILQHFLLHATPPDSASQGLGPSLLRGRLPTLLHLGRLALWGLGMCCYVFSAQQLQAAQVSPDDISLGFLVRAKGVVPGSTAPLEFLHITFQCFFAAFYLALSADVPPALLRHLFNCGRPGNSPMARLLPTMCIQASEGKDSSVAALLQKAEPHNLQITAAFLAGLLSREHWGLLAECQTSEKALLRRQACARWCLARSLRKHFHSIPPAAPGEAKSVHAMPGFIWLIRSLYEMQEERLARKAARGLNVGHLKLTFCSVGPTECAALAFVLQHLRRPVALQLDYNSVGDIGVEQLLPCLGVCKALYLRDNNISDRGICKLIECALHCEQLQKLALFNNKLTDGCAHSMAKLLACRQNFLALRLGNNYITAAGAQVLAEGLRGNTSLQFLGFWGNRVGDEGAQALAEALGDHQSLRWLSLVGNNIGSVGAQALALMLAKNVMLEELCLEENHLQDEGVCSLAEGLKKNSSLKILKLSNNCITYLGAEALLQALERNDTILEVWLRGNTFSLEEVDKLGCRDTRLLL
Dual specificity protein phosphatase 3, sequence (P51452 whole entry): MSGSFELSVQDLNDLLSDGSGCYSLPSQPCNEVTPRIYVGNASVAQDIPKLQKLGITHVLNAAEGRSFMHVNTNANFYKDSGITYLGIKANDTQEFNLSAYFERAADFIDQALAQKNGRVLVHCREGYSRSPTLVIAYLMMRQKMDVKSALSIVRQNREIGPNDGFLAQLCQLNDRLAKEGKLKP

As for `O=C(CCl)Nc1cn(-c2ccccc2)nc1-c1ccccc1`, the EC50 (as a rule, the concentration that produces a half-maximal response) in the assay with HEK293 [1] is 4.78 µM (active); in the assay on BJ [2], 8.36 µM (active); in the assay on BJ [4] it was 14.4 µM (active); in assay [6] it was > 20 µM (inactive); with BJ [10], > 150 µM (inconclusive); in assay [11] it was 16.2 µM (active). The EC50 at Protein RecA is 6.32 µM (active). Moreover, the IC50 (commonly the concentration needed to halve the response being measured) in the assay on HEK293 [3] was 5.28 µM (active); in the assay on HEK293 [5] it was > 20 µM (inactive); with HEK293 [7] it was 9.25 µM (active); in the assay on HEK293 [8], > 20 µM (inactive). Besides, the CC50 in assay [9] was 6.92 µM (active). In assay [12], the “Absolute IC50 (CHOP)” value turned out to be 10 µM. Also, the values for the AC50 in assay [13] and in [14] were 14.5 µM (active) and 13.1 µM (active), respectively.

`O=C(N/N=C/c1ccc([N+](=O)[O-])o1)c1ccccn1`: the AC50 (as a rule, the concentration giving half of the maximal activity seen) in assay [15] is 28 µM (active); in the assay with Trypanosoma cruzi it was 1.47 µM (active).

As for `Cc1ccc(NC(=O)CN2C(=O)S/C(=C\c3ccc(C(=O)O)cc3)C2=O)cc1`, the half-maximal inhibitory concentration (IC50) in assay [16] was 14.4 µM (active); in assay [17] it was > 100 µM (inactive); in [18], > 100 µM (inactive).

In the case of `O=C(COC(=O)C12CC3CC(CC(Br)(C3)C1)C2)Nc1cccc(S(=O)(=O)N2CCOCC2)c1`, the EC50 at Integrin alpha-L is 1.21 µM (active).
